IC50 data for 40 molecules are collected here from patent US20240174680A1, “CDK2 INHIBITORS AND METHODS OF USING THE SAME” (Cedilla Therapeutics, Inc., priority 2021, published 2024).

In this assay the target is CDK2/Cyclin E1 (Homo sapiens, UniProt P24941). Description: CDK2/Cyclin E1 Caliper LabChip EZ Reader mobility shift assay. In kind it is biochemical. Set-up: purchased Eurofins 14-475. The note with it: read-out: Caliper Assay (CDK2/CCNE1): IC50. Here is the method: Inhibition of CDK2/Cyclin E1 activity in the presence of compounds of the present disclosure was evaluated using a Caliper LabChip® EZ Reader mobility shift assay. In the assay, CDK2/Cyclin E1 (Eurofins, 14-475) catalyzed the phosphorylation of a fluorescently tagged peptide 5-FAM-QSPKKG-CONH2 (PerkinElmer, FL Peptide 18) which induced a difference in capillary electrophoresis mobility. The peptide substrate and product were measured, and the conversion ratio was used to determine the inhibition (as % activity and IC50 values) of CDK2/Cyclin E1. Reactions contained 50 mM HEPES pH 7.5, 10 mM MgCl2, 1 mM EDTA, 2 mM DTT, 0.01% Brij35, 0.5 mg/mL BSA, 0.1% DMSO, 2.5 nM CDK2/Cyclin E1, 100 μM ATP, and 1.5 μM fluorescent peptide substrate.
Dose titrations of inhibitors in 100% DMSO were combined with 3.25 nM CDK2/Cyclin E1 and 130 μM of ATP in reaction buffer. The mixtures were incubated for 30 minutes before the addition of fluorescent peptide substrate to initiate the kinase reaction. The final conditions were 2.5 nM CDK2/Cyclin E1, 100 μM ATP, and 1.5 μM fluorescent peptide. The reactions were stopped after 100 minutes with the addition of EDTA (400 mM final EDTA concentration). The stopped reactions were analyzed on a Caliper LabChip® EZ Reader II. The conversion ratios were normalized to yield % activity, plotted against compound concentration, and fit to a four-parameter equation to determine the IC50 for each compound.

For the molecule `C[C@@H](OCC1CCCCC1)C(NC(=O)[C@@H]1CN(C(=O)c2cncs2)CC12CN(C(=O)[C@H]1CC1(C)C)C2)c1nnco1` (stereo in doubt) [I-415, (S)—N-((1S,2R)-2-(cyclohexylmethoxy)-1-(1,3,4-oxadiazol-2-yl)propyl)-2-((S)-2,2-dimethylcyclopropane-1-carbonyl)-6-(thiazole-5-carbonyl)-2,6-diazaspiro[3.4]octane-8-carboxamide], the IC50 was in the range of 10 to 100 nM.
Next, `C[C@@H](OCc1ccccc1)[C@H](NC(=O)C1CN(C(=O)c2cnn(Cc3ccccc3)c2)CC12CN(C(=O)[C@H]1CC1(C)C)C2)C(=O)O` (stereo partly drawn) [I-9, (2S,3R)-2-(6-(1-benzyl-1H-pyrazole-4-carbonyl)-2-((S)-2,2-dimethylcyclopropanecarbonyl)-2,6-diazaspiro[3.4]octane-8-carboxamido)-3-(benzyloxy)butanoic acid]: 100 to 1000 nM; `CNC(=O)[C@@H](NC(=O)C1CN(C(=O)c2cnn(Cc3cccnc3)c2)CC12CN(C(=O)C1CC1(C)C)C2)[C@@H](C)OCc1ccccc1` (stereo partly shown) [I-15]: 100 to 1000 nM.
Then `CNC(=O)[C@@H](NC(=O)[C@@H]1CN(Cc2cnn(Cc3ccccc3)c2)CC12CN(C(=O)[C@H]1CC1(C)C)C2)[C@@H](C)OCc1ccccc1` [I-16A], with greater than 10000 nM; and `CNC(=O)[C@@H](NC(=O)[C@H]1CN(Cc2cnn(Cc3ccccc3)c2)CC12CN(C(=O)[C@H]1CC1(C)C)C2)[C@@H](C)OCc1ccccc1` [I-16B], with greater than 10000 nM.
Next, `CNC(=O)[C@@H](NC(=O)[C@H]1CN(C(=O)c2cnn(CC3CCN(C(C)=O)CC3)c2)CC12CN(C(=O)[C@H]1CC1(C)C)C2)[C@@H](C)OCc1ccccc1` [I-17B]: greater than 10000 nM; `[2H]C([2H])([2H])NC(=O)C(NC(=O)[C@@H]1CN(C(=O)c2cncs2)CC12CN(C(=O)[C@H]1CC1(C)C)C2)c1cccc(N2CCOCC2)n1` (stereo partly shown) [I-18]: 1000 to 10000 nM.
With `CNC(=O)[C@@H](NC(=O)[C@@H]1CN(C(=O)c2cnn(CC3CCNCC3)c2)CC12CN(C(=O)[C@H]1CC1(C)C)C2)[C@@H](C)OCc1ccccc1` [I-19A], the IC50 lay in the range of 100 to 1000 nM.
Then `CNC(=O)[C@@H](NC(=O)[C@H]1CN(C(=O)c2cnn(CC3CCNCC3)c2)CC12CN(C(=O)[C@H]1CC1(C)C)C2)[C@@H](C)OCc1ccccc1` [I-19B], with greater than 10000 nM; and `C[C@@H](OCc1ccccc1)[C@H](NC(=O)C1CN(C(=O)c2cnn(Cc3ccccc3)c2)CC12CN(C(=O)[C@H]1CC1(C)C)C2)C(=O)NCC#CCO` (stereo partly shown) [I-20], with 10 to 100 nM; and `C[C@@H](OCc1ccccc1)C(NC(=O)C1CN(C(=O)c2cnn(Cc3ccccc3)c2)CC12CN(C(=O)[C@H]1CC1(C)C)C2)C(=O)NCCOCCOCCO` (stereo partly shown) [I-21], with 10 to 100 nM.
Take `C[C@@H]1C[C@H](C)CN(C(=O)[C@@H](NC(=O)C2CN(C(=O)c3cnn(Cc4ccccc4)c3)CC23CN(C(=O)[C@H]2CC2(C)C)C3)[C@@H](C)OCc2ccccc2)C1` (stereo partly shown) [I-22]: the IC50 was 10 to 100 nM.
Consider `CNC(=O)[C@@H](NC(=O)[C@@H]1CN(C(=O)c2cnn(CC3CCN(C)CC3)c2)CC12CN(C(=O)[C@H]1CC1(C)C)C2)[C@@H](C)OCc1ccccc1` [I-23A], for which the IC50 was in the range of 1000 to 10000 nM.
Next, `CNC(=O)[C@@H](NC(=O)[C@H]1CN(C(=O)c2cnn(CC3CCN(C)CC3)c2)CC12CN(C(=O)[C@H]1CC1(C)C)C2)[C@@H](C)OCc1ccccc1` [I-23B]: greater than 10000 nM.
`CNC(=O)[C@@H](NC(=O)[C@@H]1CN(C(=O)c2cncs2)CC12CN(C(=O)[C@H]1CC1(C)C)C2)[C@@H](C)OCc1ccccc1` [I-24A, (S)—N-((2S,3R)-3-(benzyloxy)-1-(methylamino)-1-oxobutan-2-yl)-2-((S)-2,2-dimethylcyclopropane-1-carbonyl)-6-(thiazole-5-carbonyl)-2,6-diazaspiro[3.4]octane-8-carboxamide]: the IC50 lay in the range of 100 to 1000 nM.
Turning to `CNC(=O)[C@@H](NC(=O)[C@H]1CN(C(=O)c2cncs2)CC12CN(C(=O)[C@H]1CC1(C)C)C2)[C@@H](C)OCc1ccccc1` [I-24B], the IC50 is greater than 10000 nM.
Consider `CNC(=O)[C@@H](NC(=O)[C@@H]1CN(C(=O)c2cnn(Cc3ccccc3)c2)CC12CN(C(=O)Cc1ccccc1)C2)[C@@H](C)OCc1ccccc1` [I-25A, (S)-6-(1-benzyl-1H-pyrazole-4-carbonyl)-N-((2S,3R)-3-(benzyloxy)-1-(methylamino)-1-oxobutan-2-yl)-2-(2-phenylacetyl)-2,6-diazaspiro[3.4]octane-8-carboxamide], for which the IC50 is greater than 10000 nM.
`CNC(=O)[C@@H](NC(=O)[C@H]1CN(C(=O)c2cnn(Cc3ccccc3)c2)CC12CN(C(=O)Cc1ccccc1)C2)[C@@H](C)OCc1ccccc1` [I-25B]: the IC50 was greater than 10000 nM.
Then `CNC(=O)[C@@H](NC(=O)[C@@H]1CN(C(=O)c2cnn(Cc3ccccc3)c2)CC12CN(C(=O)c1ccccc1)C2)[C@@H](C)OCc1ccccc1` [I-26A], with 1000 to 10000 nM; and `CNC(=O)[C@@H](NC(=O)[C@H]1CN(C(=O)c2cnn(Cc3ccccc3)c2)CC12CN(C(=O)c1ccccc1)C2)[C@@H](C)OCc1ccccc1` [I-26B], with greater than 10000 nM; and `CNC(=O)[C@@H](NC(=O)[C@@H]1CN(C(=O)c2cnn(Cc3ccccc3)c2)CC12CN(C(=O)CC1CCC1)C2)[C@@H](C)OCc1ccccc1` [I-27A], with 1000 to 10000 nM.
Regarding `CNC(=O)[C@@H](NC(=O)[C@H]1CN(C(=O)c2cnn(Cc3ccccc3)c2)CC12CN(C(=O)CC1CCC1)C2)[C@@H](C)OCc1ccccc1` [I-27B], the IC50 was greater than 10000 nM.
On to `C[C@@H](OCc1ccccc1)[C@H](NC(=O)C1CN(C(=O)c2cnn(Cc3ccccc3)c2)CC12CN(C(=O)[C@H]1CC1(C)C)C2)C(=O)NCC#CCN` (stereo partly shown) [I-28], for which the IC50 was in the range of 100 to 1000 nM.
On to `C[C@@H](OCc1ccccc1)[C@H](NC(=O)C1CN(C(=O)c2cnn(Cc3ccccc3)c2)CC12CN(C(=O)[C@H]1CC1(C)C)C2)C(=O)NCCC(=O)O` (stereo partly shown) [I-29], for which the IC50 was in the range of 100 to 1000 nM.
Consider `C[C@@H](OCc1ccccc1)[C@H](NC(=O)C1CN(C(=O)c2cnn(Cc3ccccc3)c2)CC12CN(C(=O)[C@H]1CC1(C)C)C2)C(=O)NCCO` (stereo partly shown) [I-30], for which the IC50 fell in the range of 10 to 100 nM.
For the molecule `C[C@@H](OCc1ccccc1)[C@H](NC(=O)C1CN(C(=O)c2cnn(Cc3ccccc3)c2)CC12CN(C(=O)[C@H]1CC1(C)C)C2)C(=O)NCCN` (stereo partly shown) [I-31], the IC50 is 100 to 1000 nM.
For the molecule `C[C@@H](OCc1ccccc1)[C@H](NC(=O)C1CN(C(=O)c2cnn(Cc3ccccc3)c2)CC12CN(C(=O)[C@H]1CC1(C)C)C2)C(=O)N1CCNCC1` (stereo partly shown) [I-32], the IC50 is 10 to 100 nM.
`CNC(=O)[C@@H](NC(=O)[C@@H]1CN(C(=O)c2cnn(C)c2)CC12CN(C(=O)[C@H]1CC1(C)C)C2)[C@@H](C)OCc1ccccc1` [I-33A]: the IC50 was in the range of 100 to 1000 nM.
Consider `CNC(=O)[C@@H](NC(=O)[C@H]1CN(C(=O)c2cnn(C)c2)CC12CN(C(=O)[C@H]1CC1(C)C)C2)[C@@H](C)OCc1ccccc1` [I-33B], for which the IC50 is greater than 10000 nM.
For `Cc1ccc(CNC(=O)[C@@H]2CN(C(=O)c3cnn(Cc4ccncc4F)c3)CC23CN(C(=O)[C@H]2CC2(C)C)C3)nn1` [I-35], the IC50 was greater than 10000 nM.
As for `CNC(=O)[C@@H](NC(=O)[C@@H]1CN(C(=O)C2CCOCC2)CC12CN(C(=O)[C@H]1CC1(C)C)C2)[C@@H](C)OCc1ccccc1` [I-38A], the IC50 is greater than 10000 nM.
For the molecule `CNC(=O)[C@@H](NC(=O)[C@H]1CN(C(=O)C2CCOCC2)CC12CN(C(=O)[C@H]1CC1(C)C)C2)[C@@H](C)OCc1ccccc1` [I-38B], the IC50 was greater than 10000 nM.
Then `CNC(=O)[C@@H](NC(=O)[C@H]1CN(C(=O)c2cnco2)CC12CN(C(=O)[C@H]1CC1(C)C)C2)[C@@H](C)OCc1ccccc1` [I-39B], with greater than 10000 nM; and `CNC(=O)[C@@H](NC(=O)[C@@H]1CN(Cc2ccccn2)CC12CN(C(=O)[C@H]1CC1(C)C)C2)[C@@H](C)OCc1ccccc1` [I-40A], with greater than 10000 nM.
Next, `CNC(=O)[C@@H](NC(=O)[C@H]1CN(Cc2ccccn2)CC12CN(C(=O)[C@H]1CC1(C)C)C2)[C@@H](C)OCc1ccccc1` [I-40B]: greater than 10000 nM; `CNC(=O)[C@@H](NC(=O)[C@@H]1CN(C(=O)c2cn[nH]c2)CC12CN(C(=O)CC1CC1)C2)[C@@H](C)OCc1ccccc1` [I-41A, (S)—N-((2S,3R)-3-(benzyloxy)-1-(methylamino)-1-oxobutan-2-yl)-2-(2-cyclopropylacetyl)-6-(1H-pyrazole-4-carbonyl)-2,6-diazaspiro[3.4]octane-8-carboxamide]: greater than 10000 nM; `CNC(=O)[C@@H](NC(=O)[C@H]1CN(C(=O)c2cn[nH]c2)CC12CN(C(=O)CC1CC1)C2)[C@@H](C)OCc1ccccc1` [I-41B]: greater than 10000 nM.
With `CNC(=O)[C@@H](NC(=O)[C@@H]1CN(C(=O)c2cccnc2)CC12CN(C(=O)[C@H]1CC1(C)C)C2)[C@@H](C)OCc1ccccc1` [I-42A], the IC50 was in the range of 1000 to 10000 nM.
In the case of `CNC(=O)[C@@H](NC(=O)[C@H]1CN(C(=O)c2cccnc2)CC12CN(C(=O)[C@H]1CC1(C)C)C2)[C@@H](C)OCc1ccccc1` [I-42B], the IC50 was greater than 10000 nM.
On to `CNC(=O)[C@@H](NC(=O)[C@@H]1CN(C(=O)c2cnn(CC(F)(F)F)c2)CC12CN(C(=O)CC1CC1)C2)[C@@H](C)OCc1ccccc1` [I-43A], for which the IC50 is greater than 10000 nM.
